Article PMC11873646 (Acta Pharmaceutica Sinica. B, 2024)
Read-outs that look alike come from different tables or passages of the source.

Assays:
platelet P2Y12 receptor = platelet P2Y12 receptor (Rattus norvegicus, UniProt Q9EPX4)
[1] = tested on: ADP-induced platelet aggregation
[2] = single oral dose 10 mg/kg, 4 h after administration, P < 0.05

Chain of platelet P2Y12 receptor (Q9EPX4 whole entry): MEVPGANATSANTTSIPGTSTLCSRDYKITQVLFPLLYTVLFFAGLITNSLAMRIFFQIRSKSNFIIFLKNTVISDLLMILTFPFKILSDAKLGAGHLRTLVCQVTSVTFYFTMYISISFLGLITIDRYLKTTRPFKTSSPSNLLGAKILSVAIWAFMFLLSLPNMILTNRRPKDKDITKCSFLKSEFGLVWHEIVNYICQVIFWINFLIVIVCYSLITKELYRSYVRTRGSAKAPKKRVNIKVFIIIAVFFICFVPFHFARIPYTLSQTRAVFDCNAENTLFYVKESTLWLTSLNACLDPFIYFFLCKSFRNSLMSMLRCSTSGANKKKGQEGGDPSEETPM

In the case of `COC(=O)[C@H](c1ccccc1Cl)N1CCc2sccc2C1` [Clop, Clopidogrel], the “change in P2Y12 occupancy between D1H4 and D7H4” value (platelet P2Y12 receptor; 3 mg/kg oral for 7 consecutive days, male SD rats, P < 0.01) is reported as “gradual and significant increase”, the “decrease in P2Y12 occupancy in T2DM rats vs control rats” value (platelet P2Y12 receptor; single oral dose 10 mg/kg, 1 h post-administration, P < 0.05) is reported as 50.7% and the “decrease in P2Y12 occupancy in T2DM rats vs control rats” value (platelet P2Y12 receptor; single oral dose 10 mg/kg, 4 h post-administration, P < 0.001) is reported as 64.4%. For the same compound, the “time of maximal P2Y12 occupancy” value (platelet P2Y12 receptor; single oral dose 10 mg/kg, male SD rats, post-administration) was 4 h, the “mean IPA” value ([1]; 3 mg/kg repeated oral dose group, male SD rats, 5 umol/L ADP) was 14.0 ± 12.5% and the “mean IPA” value ([1]; 30 mg/kg repeated oral dose group, male SD rats, 5 umol/L ADP) was 59.6 ± 10.1%. The “time for platelet activity to recover after cessation of administration” value ([1]; 3, 10 and 30 mg/kg for 7 days, all three dose groups, male SD rats) was “five”, the “decrease in IPA vs Clop alone” value ([1]; co-administration 10 mg/kg Clop + 10 mg/kg omeprazole, after 7 days, P < 0.01) was 57.3% and the “increase in MPA vs Clop alone” value ([1]; co-administration 10 mg/kg Clop + 10 mg/kg omeprazole, after 7 days, P < 0.05) was 21.1%. For the same compound, the “decrease in IPA in T2DM rats vs control rats” value [1, 2] was 48.3%, the “increase in MPA in T2DM rats vs control rats” value [1, 2] was 33.2% and the “time of peak maximal inhibitory effect on platelet aggregation (MPA, IPA)” value ([1]; single oral dose 10 mg/kg, male SD rats, post-administration, 5 umol/L ADP) was 4 h.
